What follows are compounds tested against biotinylated KRAS G12C protein (GMP-PNP loaded) and GST-tagged Ras binding domain of c-RAF (Homo sapiens, UniProt P01116, C118S/C51S/C80L/G12C) (assay: RAS:RAF-RBD binding assay (TR-FRET)). Details: 30-minute incubation of compound with KRAS G12C before RAF-RBD; Table 4; read-out: IC50.

Compound	IC50
(2S)-1-((Z)-4-((4-(9,10- dimethyl-7-(trifluorometh- yl)-13,14-dihydro-9H- imidazo[4″,5″:5′,6′]benzo- [1′,2′:2,3loxocino[4,5,6- hi]indolizine-2-carbonyl)- 2,6-difluorophenyl)amino)- 3-fluoro-4-oxobut-2-en-1- yl)-2-(hydroxymethyl)- azetidin-1-ium2,2,2- trifluoroacetate [Example 262]	15.1 nM
(Z)-N-(4-((4-(9,10-dimeth- yl-7-(trifluoromethyl)- 13,14-dihydro-9H-imid- azo[4″,5″:5′6′]benzo- [1′,2′:2,3]oxocino[4,5,6- hi]indolizine-2-carbonyl)- 2,6-difluorophenyl)amino)- 3-fluoro-4-oxobut-2-en-1- yl)-1-methylcyclopropan- 1-aminium2,2,2-trifluoro- acetate [Example 261]	22.2 nM

More lines, now with the values ahead:

IC50	Compound
25.3 nM	Cc1nc2c3c(c(C(F)(F)F)cc2n1C)-c1cccn2c(C(=O)c4cc(F)c(NC(=O)/C(F)=C/CNCC5(CO)CC5)c(F)c4)cc(c12)CCO3 [Example 295, mono((Z)-2-(3,5-difluoro-4-(2-fluoro-4-(((1-(hydroxymethyl)cyclo-propyl)methyl)ammonio)-but-2-enamido)benzoyl)-9,10-dimethyl-7-(trifluoro-methyl)-13,14-dihydro-9H-imidazo[4″,5″:5′,6′]-benzo[1′,2′:2,3]oxocino-[4,5,6-hi]indolizin-11-ium) mono(2,2,2-trifluoro-acetate)]
26.7 nM	Cc1nc2c3c(c(C(F)(F)F)cc2n1C)-c1cccn2c(C(=O)c4cc(F)c(NC(=O)/C(F)=C/CNC5CC6(COC6)C5)c(F)c4)cc(c12)CCO3 [Example 297, (Z)-4-((2-oxaspiro[3.3]-heptan-6-yl)amino)-N-(4-(9,10-dimethyl-7-(trifluoromethyl)-13,14-dihydro-9H-imidazo-[4″,5″:5′,6′]benzo[1′,2′: 2,3]oxocino[4,5,6-hi]-indolizine-2-carbonyl)-2,6-difluorophenyl)-2-fluorobut-2-enamide]
1.22 nM	Cc1nc2c3c(c(OC(F)F)cc2n1C)-c1cccn2c(C(=O)c4cc(F)c(NC(=O)/C=C/CNC5(C)CC5)c(F)c4)cc(c12)CCN3C [Example 300, (E)-N-(4-(7-(difluoromethoxy)-9,10,12-trimethyl-9,12,13,14-tetrahydroimidazo[4″,5″:5′,6′]benzo[1′,2′:2,3]azocino[4,5,6-hi]indolizine-2-carbonyl)-2,6-difluorophenyl)-4-((1-methylcyclopropyl)amino)but-2-enamide]

Source: patent US20240262842A1, “SMALL MOLECULE INHIBITORS OF KRAS G12C MUTANT” (Merck Sharp & Dohme LLC, priority 2021, published 2024)
